From patent US4681877A, “Pivaloyloxymethyl 7-β-[2-(2-amino-4-thiazolyl)-2-methoxyiminoacetamido]-3-(2-amino-1, 3-thiadiazolyl-5-thiomethyl)-3-cepheme-4-carboxylate and pharmaceutical composition containing the same” (Kureha Kagaku Kogyo Kabushiki Kaisha, priority 1982, dated 1987)
Where two headings read alike, the source gives them in different places.

Columns and labels:
[1] = tested on: Pseudomonas aeruginosa IAM 1514; assay: Minimum growth-inhibition concentration (MIC), Pseudomonas aeruginosa IAM 1514; type: cell-based; conditions: Mueller-Hinton agar, 18 to 24 hours at 37° C.
Protocol: (§1) The minimum inhibiting concentration(MIC) of the compound represented by the formula(I) and the compound represented by the formula(V) was measured according to the standard method of Japan Society of Chemotherapy against each of the following bacterial species:
(§2) Anti-bacterial activity of the compounds respectively produced in Examples 1, 2 and 3 was determined according to the standard method of Japanese Society of Chemotherapy as follows.
(§3) Each of the following bacterial strains was inoculated in Mueller-Hinton's culture medium and cultured for 18 to 48 hours at 37° C. to obtain a standard bacterial liquid containing 10^6 cells/ml.
(§4) Separately, agar plates were prepared by adding each of the solutions of each of the compounds respectively produced in Examples, 1, 2 and 3 at predetermined concentrations in amount of one ninth by weight to Mueller-Hinton's culture medium.

[2] = tested on: Serratia marcescens IAM 1223; assay: Minimum growth-inhibition concentration (MIC), Serratia marcescens IAM 1223; type: cell-based; conditions: Mueller-Hinton agar, 18 to 24 hours at 37° C.
Protocol: as §1, §2, §3, §4

E. coli W 3636 = assay: Minimum growth-inhibition concentration (MIC), E. coli W 3636; type: cell-based, Escherichia coli; conditions: Mueller-Hinton agar, 18 to 24 hours at 37° C.
Protocol: as §1, §2, §3, §4

[3] = Stability to rat liver homogenate (S-9 mix): rate of maintaining the antibacterial activity; type: in vitro ADME; conditions: for remaining at 20 min: rat
Protocol: For verifying the stability of the compound represented by the formula (I), 7-beta-[2-(2-amino-4-thiazolyl)-2-methoxyiminoacetamindo]-3-(-2-amino-1,3,4-thiadiazoyl-5-thiomethyl)-3-cepheme -4-carboxyulic acid in living body of the host, the following model experiment was carried out.
(§5) As a metabolism-activating enzyme, a rat liver homogenate (S-9, manufactured by Oriental Yeast Co.) was used in the following composition(referred to as S-9 mix, hereinafter):
(§6) After mixing 0.1 ml of a solution of the compound to be tested with 0.9 ml of S-9 mix or 0.9 ml of 0.1 M phosphoric acid buffer solution, the mixture was subjected to shaking culture for 20 min at 37° C. to prepare a test reaction solution for use in the following experiment.
(§7) Staphylococcus aureus IAM 1011 was inoculated to Mueller-Hinton'culture medium and the inoculum was cultured for 18 hours at 37° C. and after adjusting the number of the bacterial cells to 10^8 /ml of the culture medium, 50 times by weight of the Mueller-Hinton agar culture medium were added to the cultured medium to prepare flat culture plates. After placing a penicillin-cup of 8 mm in diameter on each of the thus prepared flat culture plates, 0.1 ml of the above-mentioned test reaction solution was introduced into the penicillin cup, and after leaving the system for 2 hours at 4° C., the system was incubated for 18 hours at 37° C., and the diameter of the growth-inhibition circle around the cup on the culture plate was determined.
By applying each of the thus determined diameters of the respective growth-inhibition circles on a diagram preliminarily prepared to indicate the relationship between the diameter of the growth-inhibition circle and the concentration of the compound in the culture medium before carrying out the culture, the concentration of the compound in the culture medium in the presence of S-9 mix was obtained(referred to as C2). […]

[4] = tested on: Proteus vulgaris IAM 1025; assay: Minimum growth-inhibition concentration (MIC), Proteus vulgaris IAM 1025; type: cell-based; conditions: Mueller-Hinton agar, 18 to 24 hours at 37° C.
Protocol: as §1, §2, §3, §4

E. coli IFO 12734 = assay: Minimum growth-inhibition concentration (MIC), E. coli IFO 12734; type: cell-based, Escherichia coli; conditions: Mueller-Hinton agar, 18 to 24 hours at 37° C.
Protocol: as §1, §2, §3, §4

[5] = Stability in blood of living body: serum concentration after injection; type: in vivo, male Wistar rats; conditions: rat, iv, caudal vein, Wistar rats, read-out: Concentration in the serum specimen
Protocol: A solution of sodium salt (the product in Example 2) of the compound represented by the formula(I) in an aqueous physiological solution was injected into each of 5 healthy male Wistar rats (body weight of about 180 g) after 6 to 7 weeks of birth from the caudal vein by one shot method. The same procedure was carried out by using a solution of the sodium salt in a 1/15 M phosphoric acid buffer of pH of 7.0. After 30 min, 2 hours and 4 hours of the injection, the blood of the rate was collected from the cut carotid artery of the rat, and the collected blood was subjected to centrifugation for 15 min at 3000 rpm to obtain the three kinds of serum specimens (collected after 30 min, 2 hours and 4 hours after the injection).
Separately, flat culture plates were made by adding 0.05 % by weight of Escherichia coli IFO 12734 into Heart-infusion agar culture medium, and a penicillin cup of 8 mm in diameter was placed on the flat culture medium, and each of the serum specimen, each of the blood specimen, 1/15 M phosphoric acid buffer solution or a 50% acetone-phosphoric acid buffer solution was introduced into the cup. The thus prepared inoculant was left for 30 min to 1 hour at room temperature and incubated for a night at 37° C.
Then, the diameter of the growth-inhibition circle around the penicillin cup on each flat culture plate was determined, and according to the preliminarily prepared graph showing the relationship between the diameter of the growth-inhibition circle and the concentration of the sodium salt in the serum specimen, the blood specimen, 1/15 M phosphoric acid buffer solution and 50% acetone-phosphoric acid buffer solution, the concentration of the sodium salt in the serum specimen was obtained as: […]

[6] = tested on: Staphylococcus aureus IAM 1011; assay: Minimum growth-inhibition concentration (MIC), Staphylococcus aureus IAM 1011; type: cell-based; conditions: Mueller-Hinton agar, 18 to 24 hours at 37° C.
Protocol: as §1, §2, §3, §4

Escherichia coli IFO = assay: Effects on infectious disease (mice infected with Escherichia coli IFO); type: in vivo; conditions: orally 100 mg/kg just after and 4 hours after inoculation; 7 days
Protocol: After inoculating a group consisting of 20 mice with Escherichia coli IFO intraperitoneously to be infected, the compound represented by the formula(V) was orally administered to the mice just after and after 4 hours of inoculation at a dose rate of 100 mg/kg body weight, and after 7 days of the administration, the effectiveness of the compound was judged by observing the death rate of each group of mice by the infection.
In the same manner, after inoculating another group consisting of 20 mice with Escherichia coli IFO intraperitoneously to be infected, the compound represented by the formula(I) was orally administered thereto just after and after 4 hours of inoculation at the dose rate of 100 mg/kg body weight, and after 7 days of the administration, the effectiveness of the compound was judged by observing the rate of survival of the mice.

ICR-JCL mice = assay: Acute mammalian toxicity (LD50, 7-day mortality); type: in vivo; conditions: autopsy after 7 days, dead and live mice
Protocol: (§8) Acute mammalian toxicity of the compound represented by the formula(I) and the compound represented by the formula(V) was investigated by orally or intraperitoneally administering a series of aqueous physiological saline solution containing each of the above-mentioned compounds to groups of ICR-JCL mice, and observing the toxic symptoms appearing on the mice including the mortality for 7 days. Then, from the cumulative mortality, LD50 values were calculated by Litchfield-Wilcoxon's graphical method.

[7] = Acute mammalian toxicity (LD50, 7-day mortality); type: in vivo; conditions: mouse, in vivo
Protocol: as §8

Escherichia coli [8] = assay: Effect on the experimental infectious disease on mice; type: in vivo, Escherichia coli; ddY-strain SPF mice; conditions: orally 100 mg/kg, ddY-strain SPF mice, 1.4×10^8 cells E. coli i.p.
Protocol: To each of the two groups of ddY-strain SPF mice, 1.4×10^8 cells of Escherichia coli was intraperitoneously inoculated to be infected, and just after or after 4 hours of the inoculation, the compound represented by the formula (I) was orally administered at a dose rate of 100 mg/kg.

test bacterial species = assay: Anti-bacterial activity (MIC) in general, all test species; type: cell-based; conditions: against the test bacterial species
Protocol: as §1
Escherichia coli IFO 12734
Staphylococcus aureus IAM 1011
Proteus vulgaris IAM 1025
Pseudomonas aeruginosa IAM 1514 and
Serratia marcescens IAM 1223

Lactobacillus sp. = tested on: Lactobacillus sp.; parameters: species or system Lactobacillus sp.; female ICR mice; conditions: mouse, in vivo, po, 100 mg/kg
Protocol: (§9) The above-mentioned pivaloyloxymethyl ester represented by the formula(V) was orally administered for two continued days at a daily dosage of 100 mg/kg body weight to each of five female ICR mice of a group after 6 weeks of birth. Each of the two fecal specimens respectively collected before and after one day of the administration was diluted with 100 times by weight of an anaerobic diluent(a phosphoric buffer solution) and was ground in a mortar, and 0.1 ml of the ground material was smeared on each of the following culture media for the following bacteria and the thus inoculated culture media were incubated under the following conditions. Thereafter, the number of the following bacteria was determined on each culture medium.

Escherichia coli [9] = assay: Number of bacterial cells in feces, E. coli; type: in vivo, Escherichia coli; female ICR mice; conditions: after 2 days oral 100 mg/kg; before: 6.4
Protocol: as §9

[10] = tested on: Staphylococcus aureus IAM 1011; assay: Stability of the compound of formula (V): growth-inhibiting circle with/without S-9 mix; type: cell-based; conditions: formula (I) = 100
Protocol: as §5, §6, §7
The same test as above was carried on the compound represented by the formula(V). […]

Pseudomonas aeruginosa = tested on: Pseudomonas aeruginosa; parameters: species or system Pseudomonas aeruginosa; female ICR mice; conditions: mouse, in vivo, po, 100 mg/kg
Protocol: as §9

Bacterioides sp. = tested on: Bacterioides sp.; parameters: species or system Bacterioides sp.; female ICR mice; conditions: mouse, in vivo, po, 100 mg/kg
Protocol: as §9

Lactobacillus bifidus = tested on: Lactobacillus bifidus; parameters: species or system Lactobacillus bifidus; female ICR mice; conditions: mouse, in vivo, po, 100 mg/kg
Protocol: as §9

Streptococcus sp. = tested on: Streptococcus sp.; parameters: species or system Streptococcus sp.; female ICR mice; conditions: mouse, in vivo, po, 100 mg/kg
Protocol: as §9

Escherichia coli [11] = assay: Activity against Escherichia coli before and after metabolism by rat liver homogenate; type: cell-based
Protocol: The same test as above was carried on the compound represented by the formula(V). The results obtained were compared to the results of the test (1) on the compound represented by the formula(I) according to the following criterion.
Taking the diameter of the growth-inhibiting circle due to the compound represented by the formula(I) at the same concentration as 100, and the ratio of the diameter of the growth-inhibiting circle due to the compound represented by the fomula(V) to the diameter of the growth-inhibiting circle due to the compound represented by the formula(I) is represented by the percentages as follows, and the respective signs are attributed to the respective percentage.

[12] = ip, read-out: LD50 (intraperitoneous)

SMILES | Minimum growth-inhibition concentration (MIC) on Pseudomonas aeruginosa IAM 1514 [1] | Minimum growth-inhibition concentration (MIC) on Serratia marcescens IAM 1223 [2] | Minimum growth-inhibition concentration (MIC) on E. coli W 3636 (E. coli W 3636) | Minimum growth-inhibition concentration (MIC) on Proteus vulgaris IAM 1025 [4] | Minimum growth-inhibition concentration (MIC) on E. coli IFO 12734 (E. coli IFO 12734) | Minimum growth-inhibition concentration (MIC) on Staphylococcus aureus IAM 1011 [6] | Rate of survival (Escherichia coli IFO) | Autopsy findings (ICR-JCL mice) | LD50 at 168 h [7, 12] [mg/kg] | LD50 at 168 h ([7]; po, read-out: LD50 (oral)) [mg/kg] | Anti-bacterial activity (MIC), in words (test bacterial species) | other results
CO/N=C(\C(=O)N[C@@H]1C(=O)N2C(C(=O)O)=C(COC(C)=O)CS[C@H]12)c1csc(N)n1 [CEFOTAX ®, reference compound] | 50 | 0.2 | 0.1 | < 0.05 | < 0.05 | 1.56 | – | – | – | – | – | remaining at 20 min ([3]; s9): 17%; concentration at 0.5 h ([5]; 30 min after injection): 7000 ng/mL; concentration at 2 h ([5]; 2 hours after injection): 2500 ng/mL; concentration at 4 h ([5]; 4 hours after injection): 400 ng/mL
CON=C(C(=O)N[C@@H]1C(=O)N2C(C(=O)O)=C(CSc3nnc(N)s3)CS[C@H]12)c1csc(N)n1 [Example 1, 7-beta-[2-(2-amino-4-thiazolyl)-2-methoxyiminoacetamido]-3-(2-amino-1,3,4-thiadiazolyl-5-thiomethyl)-3-cepheme-4-carboxylic acid] | 12.5 | 0.2 | 0.2 | < 0.05 | < 0.05 | 0.78 | over 55% | No noticeable information | > 10000 | > 10000 | strong and broad anti-bacterial activity | Stability to the action of rat liver homogenate, in words ([3]; S-9 mix): stable; remaining at 20 min ([3]; liver homogenate s-9 mix, S-9 mix, 20 min at 37° C., read-out: Rate of maintaining the antibacterial activity): 80%; Survival on the 7th day of infection (Escherichia coli [8]): more than 55%
CON=C(C(=O)N[C@@H]1C(=O)N2C(C(=O)OCOC(=O)C(C)(C)C)=C(CSc3nnc(N)s3)CS[C@H]12)c1csc(N)n1 [Example 3, pivaloyloxymethyl 7-beta-[2-(2-amino-4-thiazolyl) -2-methoxyiminoacetamido]-3-(2-amino-1,3,4,-thiadiazolyl-5-thiomethyl)-3-cepheme-4-carboxylate] | ≥ 100 | ≥ 100 | 50 | 12.5 | 12.5 | ≥ 100 | over 60% | No noticeable information | > 10000 | > 10000 | not so small to verify the anti-bacterial activity | log10 value of the number of bacterial cells/g of feces, Lactobacillus sp. (Lactobacillus sp.): 8.9 log10 of bacterial cells/g of; log10 value of the number of bacterial cells/g of feces, E. coli (Escherichia coli [9]): 6.5 log10 of bacterial cells/g of; Ratio of diameter of growth-inhibiting circle to that of formula (I), sign ([10]; added with S-9 mix): +++ (67 to 100); Ratio of diameter of growth-inhibiting circle to that of formula (I), sign ([10]; without addition of S-9 mix): ± (0 to 1); log10 value of the number of bacterial cells/g of feces, Pse. aeruginosa (Pseudomonas aeruginosa): < 3.0 log10 of bacterial cells/g of; log10 value of the number of bacterial cells/g of feces, Bacterioides sp. (Bacterioides sp.): 8.2 log10 of bacterial cells/g of; log10 value of the number of bacterial cells/g of feces, Lact. bifidus (Lactobacillus bifidus): 8.4 log10 of bacterial cells/g of; log10 value of the number of bacterial cells/g of feces, Streptococcus sp. (Streptococcus sp.): 7.0 log10 of bacterial cells/g of; Activity against Escherichia coli, in words (Escherichia coli [11]; after metabolized by the rat liver homogenate): active; Activity to Escherichia coli, in words (Escherichia coli [11]; compound itself, without S-9 mix): inactive
